According to ChEMBL document CHEMBL1201862, “PubChem BioAssay data set” (2004):
Activity calls are given as the source filed them. For most assays here, no stated cut-off is given here; in the data, actives have a measured AC50 and inactives only a lower limit.

Assays:
[1] = molecular target: T1, Replicative DNA helicase DnaB (Mycobacterium tuberculosis, UniProt P9WMR3); experiment: DnaB intein splicing inhibitors, dose response, biochemical, cell-free fluorescence (AID 449749); type: functional
T1 sequence (P9WMR3 whole entry): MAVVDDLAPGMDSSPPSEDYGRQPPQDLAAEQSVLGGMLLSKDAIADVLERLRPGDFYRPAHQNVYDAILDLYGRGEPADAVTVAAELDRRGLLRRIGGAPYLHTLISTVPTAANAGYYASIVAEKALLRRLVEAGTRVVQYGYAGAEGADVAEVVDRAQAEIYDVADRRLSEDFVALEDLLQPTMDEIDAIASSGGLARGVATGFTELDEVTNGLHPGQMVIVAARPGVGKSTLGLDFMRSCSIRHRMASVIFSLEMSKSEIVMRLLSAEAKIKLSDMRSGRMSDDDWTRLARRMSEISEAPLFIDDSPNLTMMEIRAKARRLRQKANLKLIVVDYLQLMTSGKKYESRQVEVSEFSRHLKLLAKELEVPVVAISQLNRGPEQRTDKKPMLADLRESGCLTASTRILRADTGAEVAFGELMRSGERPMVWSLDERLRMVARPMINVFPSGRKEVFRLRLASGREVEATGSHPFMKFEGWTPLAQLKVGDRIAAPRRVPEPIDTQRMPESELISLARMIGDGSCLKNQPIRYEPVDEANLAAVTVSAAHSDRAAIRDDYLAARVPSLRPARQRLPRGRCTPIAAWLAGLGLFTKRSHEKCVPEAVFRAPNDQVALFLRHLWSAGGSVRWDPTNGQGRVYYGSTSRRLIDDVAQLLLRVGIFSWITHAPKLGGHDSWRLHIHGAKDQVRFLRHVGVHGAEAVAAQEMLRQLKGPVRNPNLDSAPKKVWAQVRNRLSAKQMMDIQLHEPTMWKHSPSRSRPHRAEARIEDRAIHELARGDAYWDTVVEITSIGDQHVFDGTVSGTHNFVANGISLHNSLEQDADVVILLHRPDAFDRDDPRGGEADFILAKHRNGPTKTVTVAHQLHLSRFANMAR

Protein RecA = molecular target: T2, Protein RecA (Mycobacterium tuberculosis, UniProt P9WHJ3); experiment: Fluorescence Cell-Free Homogeneous Dose Retest to Identify Inhibitors of RecA-Intein Splicing Activity. [Related pubchem assays (depositor defined):AID2097, AID2223, AID489010, AID492950]; type: functional
T2 sequence (P9WHJ3 whole entry): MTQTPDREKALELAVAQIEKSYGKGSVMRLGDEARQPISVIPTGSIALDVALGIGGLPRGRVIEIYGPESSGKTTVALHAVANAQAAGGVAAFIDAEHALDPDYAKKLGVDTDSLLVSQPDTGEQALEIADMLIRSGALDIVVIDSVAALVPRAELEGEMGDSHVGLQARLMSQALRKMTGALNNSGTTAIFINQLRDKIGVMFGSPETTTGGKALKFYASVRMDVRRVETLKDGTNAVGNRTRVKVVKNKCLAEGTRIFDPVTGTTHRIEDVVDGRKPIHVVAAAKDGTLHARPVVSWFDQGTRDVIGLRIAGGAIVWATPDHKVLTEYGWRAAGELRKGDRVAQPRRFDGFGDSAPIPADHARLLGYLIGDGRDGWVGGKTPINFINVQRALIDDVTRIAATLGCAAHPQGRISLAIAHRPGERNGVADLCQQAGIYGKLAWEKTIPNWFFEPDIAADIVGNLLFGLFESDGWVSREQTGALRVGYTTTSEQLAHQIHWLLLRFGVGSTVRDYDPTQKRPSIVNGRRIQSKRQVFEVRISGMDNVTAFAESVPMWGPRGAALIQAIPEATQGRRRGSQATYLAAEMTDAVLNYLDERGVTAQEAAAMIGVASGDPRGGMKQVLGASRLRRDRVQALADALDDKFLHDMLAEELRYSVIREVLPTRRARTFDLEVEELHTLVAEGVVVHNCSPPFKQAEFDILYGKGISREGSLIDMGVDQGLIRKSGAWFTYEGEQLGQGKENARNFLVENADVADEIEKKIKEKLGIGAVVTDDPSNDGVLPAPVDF

[2] = molecular target: T3, Histone-lysine N-methyltransferase NSD2 (Homo sapiens, UniProt O96028); type: biochemical
T3 sequence (O96028 whole entry): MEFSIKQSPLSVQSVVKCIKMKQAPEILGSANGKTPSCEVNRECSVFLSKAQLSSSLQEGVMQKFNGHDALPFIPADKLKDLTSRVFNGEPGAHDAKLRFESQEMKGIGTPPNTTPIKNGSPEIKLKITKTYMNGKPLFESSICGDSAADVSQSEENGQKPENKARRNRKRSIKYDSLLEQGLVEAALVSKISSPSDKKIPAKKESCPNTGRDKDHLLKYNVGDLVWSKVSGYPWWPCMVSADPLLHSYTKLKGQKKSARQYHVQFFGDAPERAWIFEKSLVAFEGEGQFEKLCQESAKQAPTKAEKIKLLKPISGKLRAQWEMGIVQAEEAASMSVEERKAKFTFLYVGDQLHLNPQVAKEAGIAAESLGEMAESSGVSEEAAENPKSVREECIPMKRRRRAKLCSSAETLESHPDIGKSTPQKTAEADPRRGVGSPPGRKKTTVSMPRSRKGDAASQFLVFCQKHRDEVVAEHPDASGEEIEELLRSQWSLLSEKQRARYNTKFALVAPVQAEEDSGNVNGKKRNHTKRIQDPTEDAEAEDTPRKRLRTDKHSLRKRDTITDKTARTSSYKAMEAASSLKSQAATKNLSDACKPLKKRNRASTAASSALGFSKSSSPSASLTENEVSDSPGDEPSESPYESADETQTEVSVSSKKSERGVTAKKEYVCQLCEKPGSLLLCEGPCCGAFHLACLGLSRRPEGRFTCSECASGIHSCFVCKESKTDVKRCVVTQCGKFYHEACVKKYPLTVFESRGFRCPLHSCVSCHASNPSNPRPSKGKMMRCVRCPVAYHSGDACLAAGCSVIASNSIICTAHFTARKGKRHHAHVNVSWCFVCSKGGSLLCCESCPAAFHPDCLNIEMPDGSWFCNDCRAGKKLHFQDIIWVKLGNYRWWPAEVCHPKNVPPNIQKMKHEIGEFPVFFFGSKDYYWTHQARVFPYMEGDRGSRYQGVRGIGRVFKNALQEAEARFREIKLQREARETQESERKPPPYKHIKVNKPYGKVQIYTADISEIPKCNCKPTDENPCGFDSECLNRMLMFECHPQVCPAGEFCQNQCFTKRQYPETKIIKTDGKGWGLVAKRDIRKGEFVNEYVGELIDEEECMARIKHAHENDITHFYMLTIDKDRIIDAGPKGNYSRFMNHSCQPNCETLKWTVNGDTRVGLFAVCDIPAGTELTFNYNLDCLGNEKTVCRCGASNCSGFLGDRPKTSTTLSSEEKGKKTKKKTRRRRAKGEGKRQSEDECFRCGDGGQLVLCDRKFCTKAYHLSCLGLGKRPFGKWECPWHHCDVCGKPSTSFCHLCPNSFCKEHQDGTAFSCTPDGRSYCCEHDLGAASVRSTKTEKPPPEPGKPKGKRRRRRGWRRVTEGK

| Structure (SMILES) | AC50 [1] | EC50 (Protein RecA) | AC50 [2] |
| --- | --- | --- | --- |
| CC(C)=CCC1=C(OCC(=O)O)C(=O)c2ccccc2C1=O | 9.19 µM (active) | 7.75 µM (active) | 3.99 µM (active) |
| Cc1[nH][nH]c(=O)c1C(c1c(C)[nH][nH]c1=O)c1cn(Cc2ccccc2Cl)c2ccccc12 | 0.242 µM (active) | 0.299 µM (active) | 17.8 µM (active) |
| Cc1cccc(NC2=C(NC(=O)c3ccccc3)C(=O)c3ccccc3C2=O)c1 | 3.96 µM (active) | 1.71 µM (active) |  |
